Among the data in patent US9345742B2, “Aminostatin derivatives for the treatment of arthrosis” (MERCK PATENT GMBH, priority 2011, dated 2016) are IC50 values, retold here.

Numbered stars: 1 amine (or outer) side, 2 acyl side, 3 side chain; on linkers, the order of the positions; unused ones are H or OH. Square brackets hold non-standard residues; d marks the D form. Peptide text beside a SMILES is read from it. * marks the point of attachment. X1 = N[C@@H](CC(=O)[*:2])[C@H](Cc1ccccc1)N[*:1]; Isovaleryl = CC(C)CC(=O)*; Abu = CC[C@H](N)C(=O)O; Boc = CC(C)(C)OC(=O)*

In test [1] the target is cathepsin D isolated from the human liver (Homo sapiens (Human), UniProt P07339). The test can be described thus: In-vitro fluorescence assay for identification of cathepsin D inhibitors. Format: biochemical. The settings on record: cathepsin D 1.4 nM, pH 5.5; read-out: CatD assay IC50-. The procedure: In order to identify modulators of cathepsin D activity, a continuous enzymatic test was carried out with a synthetic peptide which carries a fluorescent group (MCA=(7-methoxycoumarin-4-yl)acetyl) which is quenched by energy transfer from a Dpn (2,4 dinitrophenyl) group on the same molecule, in Greiner 384-well nb microtitre plates. Cleavage of the peptidic substrate by cathepsin D causes an increase in the fluorescence intensity. In order to determine the efficacy of substances, the time-dependent increase in the fluorescence intensity in the presence of the substance was compared with the time-dependent increase in fluorescence in the absence of substances. The reference substance used was pepstatin A (Sigma-Aldrich). The substrate used was […](Dnp)d-R—NH2 (Enzo Life Sciences, Lörrach). The enzyme employed was cathepsin D isolated from the human liver (Sigma-Aldrich) in a final concentration of 1.4 nM. The test was carried out in 100 mM sodium acetate buffer, 1.25% (v/v) of DMSO, 0.25% (w/v) of Chaps, pH 5.5. 2 μl of each substance solution with serially diluted substance concentration were added to in each case 4 μl of cathepsin D solution and incubated at room temperature for 10 min. The reaction was started by addition of 2 μl of substrate solution (final concentration 5 μM). After carrying out a starting-point fluorescence measurement (excitation wavelength 340 nm/emission wavelength 450 nm) using an Envision multilabel reader (Perkin Elmer), the reaction was incubated at room temperature for 60 min. The amount of peptide fragment cleaved off during the reaction time was subsequently measured by determination of the increase in the fluorescence intensity at 450 nm (excitation wavelength 340 nm).
cathepsin D isolated from the human liver, sequence (P07339 65-161): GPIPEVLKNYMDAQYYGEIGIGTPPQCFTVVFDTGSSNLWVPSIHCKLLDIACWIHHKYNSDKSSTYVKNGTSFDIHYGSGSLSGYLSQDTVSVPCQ
cathepsin D isolated from the human liver, sequence (P07339 169-412): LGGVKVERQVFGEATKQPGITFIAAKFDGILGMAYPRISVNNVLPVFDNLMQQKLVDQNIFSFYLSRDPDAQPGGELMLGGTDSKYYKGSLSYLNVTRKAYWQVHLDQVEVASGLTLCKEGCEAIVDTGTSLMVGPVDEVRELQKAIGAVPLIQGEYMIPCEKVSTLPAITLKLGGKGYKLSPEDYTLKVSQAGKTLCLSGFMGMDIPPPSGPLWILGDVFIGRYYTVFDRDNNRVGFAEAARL

A further test addresses recombinant human renin (Homo sapiens (Human), UniProt P00797). The test can be described thus: In-vitro fluorescence assay for identification of renin-inhibitory activity. Format: biochemical. Particulars: recombinant human renin 10 nM, pH 7.2; read-out: Renin selectivity IC50. The procedure:
In order to identify modulators of renin activity, a continuous enzymatic test was carried out with a synthetic peptide which carries a fluorescent group Edans (=(5-(aminoethyl)aminonaphthalenesulfonate) which is quenched by energy transfer from a Dabcyl (4′-dimethylaminoazobenzene-4-carboxylate) group on the same molecule, in Greiner 384-well microtitre plates. Cleavage of the peptidic substrate by renin causes an increase in the fluorescence intensity. In order to determine the efficacy of substances, the time-dependent increase in the fluorescence intensity in the presence of the substance was compared with the time-dependent increase in fluorescence in the absence of substances. The reference substance used was renin inhibitor 2 (Z-Arg-Arg-Pro-Phe-His-Sta-Ile-His N-Boc-Lys methyl ester Z) (Sigma-Aldrich). The substrate used was renin FRET substrate I (DABCYL-g-Abu-[…]EDANS) (Anaspec, Fremont Calif.). The enzyme employed was recombinant human renin (Proteos, Kalamazoo, Mich.) in a final concentration of 10 nM. The test was carried out in 50 mM Mops buffer, 1.5% (v/v) of DMSO, 0.1% (w/v) of Igepal®, pH 7.2, 0.5% (w/v) of BSA. 2 μl of each substance solution with serially diluted substance concentration were added to in each case 4 μl of renin solution and incubated at room temperature for 15 min. The reaction was started by addition of 4 μl of substrate solution (final concentration 5 μM). After carrying out a starting-point fluorescence measurement (excitation wavelength 340 nm/emission wavelength 495 nm) using an Envision multilabel reader (Perkin Elmer), the reaction was incubated at 37° C. for 60 min. The amount of peptide fragment cleaved off during the reaction time was subsequently measured by determination of the increase in the fluorescence intensity at 495 nm (excitation wavelength 340 nm).

recombinant human renin, sequence (P00797 67-406): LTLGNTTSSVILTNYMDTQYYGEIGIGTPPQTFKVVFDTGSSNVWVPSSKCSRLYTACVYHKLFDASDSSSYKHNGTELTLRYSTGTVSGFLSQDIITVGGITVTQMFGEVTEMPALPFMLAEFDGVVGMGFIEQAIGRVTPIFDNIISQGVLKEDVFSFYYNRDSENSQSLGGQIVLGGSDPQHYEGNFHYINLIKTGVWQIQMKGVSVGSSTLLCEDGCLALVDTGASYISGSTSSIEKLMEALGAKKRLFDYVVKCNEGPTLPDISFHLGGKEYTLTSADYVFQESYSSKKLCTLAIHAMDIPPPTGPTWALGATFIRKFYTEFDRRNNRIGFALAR

Regarding `CC[C@H](C)[C@H](NC(=O)C[C@H](N)[C@H](Cc1ccccc1)NC(=O)[C@@H](NC(=O)Cc1cccc(NS(C)(=O)=O)c1)C(C)C)C(=O)N[C@H](C(=O)OC)C(C)C` [Compound 9, Methyl (S)-2-[(2S,3S)-2-((3S,4S)-3-amino-4-{(S)-2-[2-(3-methanesulfonylamino-phenyl)-acetylamino]-3-methylbutyrylamino}-5-phenylpentanoylamino)-3-methyl-pentanoylamino]-3-methylbutyrate], the 50% inhibitory concentration (IC50) (commonly the point on the concentration scale where inhibition reaches its midpoint) in test [1] was 81 nM; at recombinant human renin, over 30000 nM. The corresponding values for `CC[C@H](C)[C@H](NC(=O)C[C@H](N)[C@H](Cc1ccccc1)NC(=O)[C@H](Cc1ccccc1)NC(=O)[C@H](CC(C)C)NC(=O)CC(C)C)C(=O)N[C@H](C(=O)OC)C(C)C` [Compound 11, Methyl (S)-2-[(2S,3S)-2-((3S,4S)-3-amino-4-{(S)-2-[(S)-4-methyl-2-(3-methylbutyrylamino)pentanoylamino]-3-phenyl-propionylamino}-5-phenylpentanoylamino)-3-methylpentanoylamino]-3-methyl-butyrate] (Isovaleryl-LF[X1]IV-OMe) are 610 nM and over 30000 nM. Turning to `CC[C@H](C)[C@H](NC(=O)Cc1cccc(OC(F)(F)F)c1)C(=O)N[C@@H](Cc1ccccc1)[C@@H](N)CC(=O)N[C@H](C(=O)N[C@H](CO)C(C)C)[C@@H](C)CC` [Compound 41, N-{(2S,3S)-1-[1-((S)-Hydroxymethyl)-2-methylpropylcarbamoyl]-2-methylbutyl)-3-(S)-amino-4-{(S)-(2S,3S)-3-methyl-2-[2-(3-trifluoromethoxyphenyl)acetylamino]-pentanoylamino}-5-phenylpentanamide], the IC50 in test [1] was 48 nM; on recombinant human renin it was over 30000 nM. For `CC[C@H](C)[C@H](NC(=O)C[C@H](N)[C@H](Cc1ccccc1)NC(=O)[C@@H](NC(=O)Cc1cccc(OC(F)(F)F)c1)C(C)C)C(=O)N[C@H](C(=O)OC)C(C)C` [Compound 7, Methyl (S)-2-[(2S,3S)-2-((3S,4S)-3-amino-4-{(S)-3-methyl-2-[2-(3-trifluoromethoxy-phenyl)acetylamino]butyrylamino}-5-phenylpentanoylamino)-3-methyl-pentanoylamino]-3-methylbutyrate], in that order: 18 nM and over 30000 nM. Consider `CC[C@H](C)[C@H](NC(=O)C[C@H](N)[C@H](Cc1ccccc1)NC(=O)[C@@H](NC(=O)[C@H](Cc1ccccc1)NC(=O)OC(C)(C)C)C(C)C)C(=O)N[C@H](C(=O)OC)C(C)C` [Compound 20, Methyl (S)-2-((2S,3S)-2-{(3S,4S)-3-amino-4-[(S)-2-((S)-2-tert-butoxycarbonylamino-3-phenylpropionylamino)-3-methylbutyrylamino]-5-phenylpentanoylamino}-3-methyl-pentanoylamino)-3-methylbutyrate] (Boc-FV[X1]IV-OMe), for which the IC50 in test [1] was found to be 1 nM. Still for that read-out and setting: in the case of `CC[C@H](NC(=O)[C@H](CC(C)C)NC(=O)CC(C)C)C(=O)N[C@@H](Cc1ccccc1)[C@@H](N)CC(=O)N[C@H](C(=O)N[C@H](C(=O)OC)C(C)C)[C@@H](C)CC` [Compound 4, Methyl (S)-2-[(2S,3S)-2-((3S,4S)-3-amino-4-{(S)-2-[(S)-4-methyl-2-(3-methylbutyrylamino)pentanoylamino]-1-oxobutylamino}-5-phenylpentanoylamino)-3-methyl-pentanoylamino]-3-methylbutyrate] (Isovaleryl-L[Abu][X1]IV-OMe) it was 97 nM; in that of `CC[C@H](C)[C@H](NC(=O)C[C@H](N)[C@H](Cc1ccccc1)NC(=O)[C@H](CC(C)C)NC(=O)CC(C)C)C(=O)N[C@H](C(=O)OC)C(C)C` [Compound 3, Methyl (S)-2-((2S,3S)-2-{(3S,4S)-3-amino-4-[(S)-4-methyl-2-(3-methylbutyrylamino)pentanoylamino]-5-phenylpentanoylamino}-3-methylpentanoylamino)-3-methyl-butyrate], 5500 nM. On the same count and under the same terms, with `CC[C@H](C)[C@H](NC(=O)C[C@H](N)[C@H](Cc1ccccc1)NC(=O)[C@@H](NC(=O)COc1ccc(Cl)cc1Cl)C(C)C)C(=O)N[C@H](C(=O)OC)C(C)C` [Compound 22, Methyl (S)-2-[(2S,3S)-2-((3S,4S)-3-amino-4-{(S)-2-[2-(2,4-dichlorophenoxy)acetylamino]-3-methylbutyrylamino)-5-phenyl-pentanoylamino)-3-methylpentanoyl-amino]-3-methylbutyrate] the figure was 27 nM; with `CC[C@H](C)[C@H](NC(=O)C[C@H](N)[C@H](Cc1ccccc1)NC(=O)[C@@H](NC(=O)[C@H](CC(C)C)NC(=O)OC(C)(C)C)C(C)C)C(=O)N[C@H](C(=O)OC)C(C)C` [Compound 16, Methyl (S)-2-((2S,3S)-2-{(3S,4S)-3-amino-4-[(S)-2-((S)-2-tert-butoxycarbonylamino-4-methylpentanoylamino)-3-methylbutyrylamino]-5-phenylpentanoylamino}-3-methyl-pentanoylamino)-3-methylbutyrate] (Boc-LV[X1]IV-OMe), 36 nM; with `CC[C@H](C)[C@H](NC(=O)C[C@H](N)[C@H](Cc1ccccc1)NC(=O)[C@@H](NC(=O)[C@@H](N)Cc1ccccc1)C(C)C)C(=O)N[C@H](C(=O)OC)C(C)C` [Compound 21, Methyl (S)-2-((2S,3S)-2-{(3S,4S)-3-amino-4-[(S)-2-((S)-2-amino-3-phenylpropionylamino)-3-methylbutyrylamino]-5-phenyl-pentanoylamino)-3-methylpentanoyl-amino)-3-methylbutyrate] (H-FV[X1]IV-OMe), 81 nM. The same measure, in the same setting: in the case of `CC[C@H](C)[C@H](NC(=O)C[C@H](N)[C@H](Cc1ccccc1)NC(=O)[C@@H](NC(=O)[C@H](CC(C)C)NC(=O)CC(C)C)C(C)C)C(=O)N[C@H](C(=O)OC)C(C)C` [Compound 10, Methyl (S)-2-[(2S,3S)-2-((3S,4S)-3-amino-4-{(S)-3-methyl-2-[(S)-4-methyl-2-(3-methyl-butyrylamino)pentanoylamino]-1-oxobutylamino}-5-phenylpentanoylamino)-3-methylpentanoylamino]-3-methyl-butyrate] (Isovaleryl-LV[X1]IV-OMe) it was 5.1 nM. As to `CC[C@H](C)[C@H](NC(=O)C[C@H](N)[C@H](Cc1ccccc1)NC(=O)[C@@H](NC(=O)[C@H](CC(C)C)NC(=O)CC(C)C)C(C)C)C(=O)N[C@H](CO)C(C)C` [Compound 34, N-[(1S,2S)-1-((S)-1-Hydroxymethyl-2-methylpropylcarbamoyl)-2-methylbutyl]-(S)-3-(S)-amino-4-{(S)-3-methyl-2-[(S)-4-methyl-2-(3-methylbutyrylamino)pentanoyl-amino]butyrylamino}-5-phenylpentanamide], in test [1], the half-inhibitory concentration (IC50) was found to be 6.2 nM. Consider `CC[C@H](C)[C@H](NC(=O)C[C@H](N)[C@H](Cc1ccccc1)NC(=O)[C@@H](NC(=O)[C@H](CC(C)C)NC(=O)CC(C)C)C(C)C)C(=O)N[C@H](C(=O)OC)[C@@H](C)CC` [Compound 13, Methyl (2S,3S)-2-[(S)-2-((S)-3-(S)-amino-4-{(S)-3-methyl-2-[(S)-4-methyl-2-(3-methyl-butyrylamino)pentanoylamino]butyryl-amino}-5-phenylpentanoylamino)-3-methyl-1-(S)-oxopentylamino]-3-methylpentanoate] (Isovaleryl-LV[X1]II-OMe), for which the IC50 in test [1] amounted to 47 nM. Consider `CC[C@H](C)[C@H](NC(=O)C[C@H](N)[C@H](Cc1ccccc1)NC(=O)[C@@H](NC(=O)[C@H](Cc1ccccc1)NC(=O)CC(C)C)C(C)C)C(=O)N[C@H](CO)C(C)C` [Compound 42, N-[(1S,2S)-1-((S)-1-Hydroxymethyl-2-methylpropylcarbamoyl)-2-methylbutyl]-(S)-3-(S)-amino-4-{(S)-3-methyl-2-[(S)-2-(3-methylbutyrylamino)-3-phenylpropionylamino]butyrylamino}-5-phenylpentanamide], for which the half-inhibitory concentration (IC50) in test [1] was 3.6 nM.
